Measured values from patent US20030144219A1, “Formulations and methods for treatment or amelioration of inflammatory conditions” (priority 2001, published 2003).

What was measured:
[1] = Human ingestion of DHA in studies in support of the invention; format: in vivo; details: approximately 800 mg DHA daily
Description: The average dietary intake of DHA (10-60 mg/day) in the American diet is relatively low in comparison to intake in countries where fish or fish products comprise higher percentages of the diet. […] Generally, ranges of about 10-10,000 mg, or more specifically, about 50-2000 mg, or 100-1000 mg will-be preferred. […] Appropriate dosages of other polyunsaturated fatty acids can be estimated with reference to this study, based on known safe ingestion levels, or may be determined empirically, with the guidance provided herein.

[2] = 3.6 gm DHA per day ingested by humans; cited from earlier work

CC/C=C\C/C=C\C/C=C\C/C=C\C/C=C\C/C=C\CCC(=O)O [DHA, all-cis 4,7,10,13,16,19-docosahexaenoic acid]
adverse effects [1]: no apparent adverse effects
toxicities [2]: no apparent toxicities
